From PubChem BioAssay AID651652 (NMMLSC, 2012)
Active and inactive are the calls of the source.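 The calls were made as follows: active = viability at the highest tested concentration below 50%; inactive = the rest.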

Experiments:
[1] = tested on: K562 vector control viability, CellTiter-Glo, 18 h; experiment: K562 empty-vector cell viability, concentration-response, counterscreen for ABCB6 inhibitor project, CellTiter-Glo luminescence, PowderSet01 powders (AID 651652)
[2] = as above; conditions: K562 vector control viability, CellTiter-Glo, 18 h; at 100 µM (top of the series)

| Structure (SMILES) | EC50 [1] [µM] | viability [2] |
| --- | --- | --- |
| CCc1ccc(NC(=O)c2nc(S(=O)(=O)Cc3ccccc3)ncc2Cl)cc1 | 4.51 |  |
| CC(=O)Nc1ccc(NC(=O)c2nc(S(=O)(=O)Cc3cccc(C)c3)ncc2Cl)cc1 |  | 51.9% (inactive) |
| CCOc1ccccc1NC(=O)c1nc(S(=O)(=O)Cc2cccc(C)c2)ncc1Cl | 11.9 |  |
| CC(=O)Nc1ccc(NC(=O)c2nc(S(=O)(=O)Cc3ccccc3)ncc2Cl)cc1 |  | 58% (inactive) |
